Measured values published in US11214803B2, “Modulators of YAP1 expression” (Ionis Pharmaceuticals, Inc., priority 2019, dated 2022).
Strand notation (5' to 3'): a small letter for the sugar, then the base; units joined by * are phosphorothioate-linked, units joined directly phosphodiester-linked; [ ] holds rarer units or linkages, { } end groups; capitals alone tell only the bases. k = constrained ethyl (cEt); [5mC] = 5-methylcytosine; d = 2'-deoxy (DNA)

System: Yap1 mRNA
Assay: Antisense inhibition of human Yap1 in A-431 cells by cEt gapmers, single dose (Example 2, RTS4814)
Assay type: cell-based
Procedure, shortened: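 Each 16-nucleoside gapmer (ten-deoxy gap, three-cEt wings) is tested once at 2,000 nM in A-431 cells by free uptake. Yap1 mRNA after about 48 hours is measured by quantitative RT-PCR and expressed relative to untreated control.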

[1] = Table 22, Yap1 mRNA as percent of untreated control, 3-10-3 cEt gapmers, single dose
[2] = Table 20, Yap1 mRNA, percent of untreated control, 3-10-3 cEt gapmers targeting SEQ ID NO.: 1 and 2
[3] = Table 6, A-431 cells, 5,000 cells per well, free uptake, 2,000 nM modified oligonucleotide, approx. 48 hours, RTS4814, normalized to RIBOGREEN, Yap1 mRNA relative to untreated control cells
[4] = Table 24, Yap1 mRNA as percent of untreated control, 3-10-3 cEt gapmers targeting SEQ ID NO.: 1, and 2
[5] = Table 32, Yap1 mRNA, percent of untreated control, 3-10-3 cEt gapmers targeting SEQ ID NO.: 1, and 2
[6] = Table 21, Yap1 mRNA, percent of untreated control, 3-10-3 cEt gapmers targeting SEQ ID NO.: 1 and 2
[7] = A-431 cells, 5,000 cells per well, free uptake, 2,000 nM modified oligonucleotide, approx. 48 hours, RTS4814, normalized to RIBOGREEN, Table 4, asterisk (*) = targets amplicon region of primer probe set
[8] = Table 5, A-431 cells, 5,000 cells per well, free uptake, 2,000 nM modified oligonucleotide, approx. 48 hours, RTS4814, normalized to RIBOGREEN, Yap1 mRNA relative to untreated control cells
[9] = Table 25, Yap1 mRNA as percent of untreated control, 3-10-3 cEt gapmers targeting SEQ ID NO.: 1, and 2
[10] = Table 23, Yap1 mRNA as percent of untreated control, 3-10-3 cEt gapmers, single dose
[11] = Table 33, Yap1 mRNA, percent of untreated control, 3-10-3 cEt gapmers targeting SEQ ID NO.: 1, and 2
[12] = Yap1 mRNA as percent of untreated control, A-431 cells, 3-10-3 cEt gapmers targeting SEQ ID NO.: 1, and 2, Table 30
[13] = Table 18, A-431 cells, 5,000 cells per well, free uptake, 2,000 nM modified oligonucleotide, approx. 48 hours, RTS4814, normalized to RIBOGREEN, Yap1 mRNA as percent of untreated control
[14] = Yap1 mRNA as percent of untreated control, A-431 cells, 3-10-3 cEt gapmers targeting SEQ ID NO.: 1, and 2, Table 31

Substance: 1076296 (kT*kA*kT*dA*dA*dA*dG*dA*d[5mC]*d[5mC]*d[5mC]*dA*dA*kT*kG*k[5mC]; antisense) [Compound 1076296]
- YAP1 (% UTC) [1]: 68 % UTC

Substance: 1075046 (antisense kA*kA*kA*dA*dT*dT*dA*dG*dA*d[5mC]*dT*d[5mC]*d[5mC]*k[5mC]*k[5mC]*k[5mC]) [Compound 1075046]
- YAP1 (% UTC) [2]: 12 % UTC

Substance: 716498 (kG*kA*kA*dG*dG*dG*d[5mC]*d[5mC]*dA*dA*dA*dA*dT*kA*k[5mC]*kT; antisense) [Compound 716498]
- YAP1 (% UTC) [3]: 92 % UTC

Substance: 1075784 (kA*kT*kT*dT*dT*dA*dT*dA*dG*dG*dG*d[5mC]*d[5mC]*kA*kT*kT; antisense) [Compound 1075784]
- YAP1 (% UTC) [1]: 3 % UTC

Substance: 1076362 (k[5mC]*k[5mC]*kA*d[5mC]*dT*dA*dA*dA*dT*dA*dA*dA*dG*k[5mC]*kA*kG; antisense) [Compound 1076362]
- YAP1 (% UTC) [4]: 16 % UTC

Substance: 1076018 (kA*k[5mC]*kT*dA*dA*dT*dA*dG*dG*dA*dT*dG*dG*kA*kT*kT; antisense) [compound 1076018]
- YAP1 (% UTC) [5]: 15 % UTC

Substance: 1074919 (antisense k[5mC]*kT*k[5mC]*dA*dA*dG*dT*dT*dA*d[5mC]*dA*dT*d[5mC]*k[5mC]*k[5mC]*kG) [Compound 1074919]
- YAP1 (% UTC) [6]: 48 % UTC

Substance: 716550 (kG*k[5mC]*kA*d[5mC]*dT*dG*dA*dA*dT*dA*dT*dT*dG*k[5mC]*k[5mC]*kA; antisense) [Compound 716550]
- YAP1 (% UTC) [7]: 77 % UTC

Substance: 716470 (kA*kA*kT*d[5mC]*dG*dA*dG*dA*d[5mC]*dT*dT*dA*dA*kA*kA*kA; antisense) [Compound 716470]
- YAP1 (% UTC) [8]: 104 % UTC

Substance: 1076263 (kA*kA*kT*dA*dA*d[5mC]*d[5mC]*dA*dA*dG*dT*dG*dA*kG*kT*kT; antisense) [Compound 1076263]
- YAP1 (% UTC) [6]: 21 % UTC

Substance: 1075659 (kA*kA*kG*dT*dA*dA*dA*dA*dA*dA*d[5mC]*dG*dG*kT*kT*kT; antisense) [Compound 1075659]
- YAP1 (% UTC) [9]: 125 % UTC

Substance: 1074248 (antisense kG*kA*kT*d[5mC]*dG*dA*dT*dG*dT*dG*dA*dT*dT*kT*kA*kA) [Compound 1074248]
- YAP1 (% UTC) [1]: 29 % UTC

Substance: 716428 (kA*k[5mC]*kA*dG*dG*d[5mC]*dT*d[5mC]*dA*d[5mC]*dT*dT*d[5mC]*k[5mC]*k[5mC]*k[5mC]; antisense) [Compound 716428]
- YAP1 (% UTC) [8]: 10 % UTC

Substance: 1075176 (antisense kA*kA*kT*dT*dA*d[5mC]*d[5mC]*d[5mC]*dG*dG*dG*dA*dA*k[5mC]*kT*kA) [Compound 1075176]
- YAP1 (% UTC) [1]: 70 % UTC

Substance: 1076201 (k[5mC]*kT*kA*dA*dA*dA*dA*dG*dA*d[5mC]*dA*dG*dG*kG*k[5mC]*k[5mC]; antisense) [Compound 1076201]
- YAP1 (% UTC) [10]: 99 % UTC

Substance: 716527 (antisense kA*kG*kT*dA*d[5mC]*dA*dG*dA*dG*dG*dG*d[5mC]*dA*kT*k[5mC]*kG) [Compound 716527]
- YAP1 (% UTC) [8]: 64 % UTC

Substance: 1076394 (k[5mC]*k[5mC]*kT*dA*dA*dA*dT*dT*dA*dG*dA*d[5mC]*dT*kT*kG*kA; antisense) [Compound 1076394]
- YAP1 (% UTC) [4]: 20 % UTC

Substance: 1074803 (kA*kG*kG*d[5mC]*dA*d[5mC]*dT*dA*d[5mC]*dA*dT*dT*dT*kA*kG*kA; antisense) [compound 1074803]
- YAP1 (% UTC) [11]: 32 % UTC

Substance: 1076304 (kA*k[5mC]*kT*dA*dA*dT*dA*dA*dG*d[5mC]*d[5mC]*dT*d[5mC]*kA*k[5mC]*k[5mC]; antisense) [compound 1076304]
- YAP1 (% UTC) [12]: 30 % UTC

Substance: 1074505 (kA*kA*kT*d[5mC]*dG*dA*dG*dA*dT*dT*dT*dA*dA*kA*kT*kA; antisense) [Compound 1074505]
- YAP1 (% UTC) [10]: 83 % UTC

Substance: 1075666 (antisense kA*kA*kA*dT*dT*dT*dA*dG*dT*dT*dG*dT*dG*k[5mC]*kA*k[5mC]) [compound 1075666]
- YAP1 (% UTC) [5]: 106 % UTC

Substance: 1076068 (k[5mC]*kT*kA*dA*dA*dA*dT*dG*dA*d[5mC]*d[5mC]*dT*dT*kA*kG*k[5mC]; antisense) [Compound 1076068]
- YAP1 (% UTC) [13]: 73 % UTC

Substance: 1074673 (antisense kA*kG*kG*d[5mC]*dA*d[5mC]*dT*d[5mC]*d[5mC]*dT*dT*d[5mC]*d[5mC]*kA*kA*kG) [compound 1074673]
- YAP1 (% UTC) [14]: 43 % UTC

Substance: 1074896 (antisense kG*k[5mC]*kA*dA*dA*dG*dT*dT*d[5mC]*d[5mC]*dT*dA*dT*kG*k[5mC]*kT) [compound 1074896]
- YAP1 (% UTC) [12]: 99 % UTC

Substance: 1076081 (kG*kA*kT*dA*dA*dT*dT*d[5mC]*dA*d[5mC]*d[5mC]*d[5mC]*dT*kT*kG*kT; antisense) [compound 1076081]
- YAP1 (% UTC) [14]: 15 % UTC

Substance: 1074130 (kA*kT*k[5mC]*d[5mC]*d[5mC]*d[5mC]*d[5mC]*dG*d[5mC]*d[5mC]*d[5mC]*d[5mC]*dG*kG*k[5mC]*kG; antisense) [compound 1074130]
- YAP1 (% UTC) [5]: 119 % UTC

Substance: 1075379 (antisense kT*kA*k[5mC]*d[5mC]*dA*dA*dA*dA*d[5mC]*dT*dA*d[5mC]*dA*kA*k[5mC]*k[5mC]) [compound 1075379]
- YAP1 (% UTC) [11]: 75 % UTC

Substance: 1075987 (kG*kA*kA*dG*dA*dA*dT*dA*dT*d[5mC]*dG*dA*dA*kA*kA*kG; antisense) [compound 1075987]
- YAP1 (% UTC) [11]: 13 % UTC

Substance: 716500 (kA*kA*k[5mC]*dT*dT*d[5mC]*dT*dT*dA*d[5mC]*dT*dT*d[5mC]*k[5mC]*kA*kA; antisense) [Compound 716500]
- YAP1 (% UTC) [8]: 18 % UTC

Substance: 716484 (k[5mC]*kA*k[5mC]*dT*dT*dT*dT*d[5mC]*d[5mC]*dA*dG*d[5mC]*dT*kA*kA*k[5mC]; antisense) [Compound 716484]
- YAP1 (% UTC) [7]: 35 % UTC

Substance: 1075524 (kT*kA*kA*dT*dT*dA*dA*dG*dG*dG*d[5mC]*d[5mC]*d[5mC]*kA*k[5mC]*kA; antisense) [Compound 1075524]
- YAP1 (% UTC) [13]: 71 % UTC

Substance: 716426 (kT*kT*kT*dG*dA*dT*dT*d[5mC]*dT*dT*dT*dA*dG*kA*kG*k[5mC]; antisense) [Compound 716426]
- YAP1 (% UTC) [3]: 45 % UTC

Substance: 1074603 (antisense kT*kT*k[5mC]*d[5mC]*dA*dG*d[5mC]*dT*dA*dA*d[5mC]*dT*d[5mC]*kA*kA*kA) [Compound 1074603]
- YAP1 (% UTC) [9]: 17 % UTC

Substance: 1075013 (antisense k[5mC]*kA*kT*dA*dA*dA*d[5mC]*d[5mC]*d[5mC]*dA*d[5mC]*dT*dT*k[5mC]*kG*kA) [Compound 1075013]
- YAP1 (% UTC) (Table 19, A-431 cells, 5,000 cells per well, free uptake, 2,000 nM modified oligonucleotide, approx. 48 hours, RTS4814, normalized to RIBOGREEN, Yap1 mRNA as percent of untreated control): 102 % UTC

Substance: 1076371 (antisense kT*kA*kA*dG*dA*dA*d[5mC]*dG*dA*dA*d[5mC]*d[5mC]*dT*k[5mC]*k[5mC]*kA) [compound 1076371]
- YAP1 (% UTC) [11]: 49 % UTC

Substance: 716534 (antisense kG*kA*kT*dT*dA*dT*dA*dA*dA*dA*dT*dT*dG*kG*kT*kT) [Compound 716534]
- YAP1 (% UTC) [3]: 90 % UTC

Substance: 716439 (kG*kT*kA*dT*dT*dT*dA*dA*dT*dA*dT*d[5mC]*dA*kG*kA*kT; antisense) [Compound 716439]
- YAP1 (% UTC) [7]: 77 % UTC

Substance: 716466 (kG*kT*kG*dG*dA*dG*d[5mC]*dA*d[5mC]*dT*d[5mC]*d[5mC]*d[5mC]*k[5mC]*kT*kA; antisense) [Compound 716466]
- YAP1 (% UTC) [7]: 58 % UTC

Substance: 1076176 (k[5mC]*kT*k[5mC]*d[5mC]*dA*dA*dT*dA*dG*dG*dT*dA*dA*k[5mC]*kA*kG; antisense) [compound 1076176]
- YAP1 (% UTC) [12]: 43 % UTC

Substance: 1075475 (kT*kA*kG*d[5mC]*dA*dA*d[5mC]*dA*d[5mC]*dA*dT*dG*dA*kA*kG*kA; antisense) [compound 1075475]
- YAP1 (% UTC) [11]: 64 % UTC

Substance: 1074376 (antisense kA*kA*k[5mC]*dG*dG*dT*dT*d[5mC]*dT*dG*d[5mC]*dT*dG*kT*kG*kA) [Compound 1074376]
- YAP1 (% UTC) [1]: 44 % UTC

Substance: 1074246 (antisense kA*kA*kG*dA*dA*dG*dT*dA*dT*d[5mC]*dT*d[5mC]*dT*kG*kA*k[5mC]) [Compound 1074246]
- YAP1 (% UTC) [2]: 11 % UTC
